pIC50: −log10 of the molar value.
How the values were obtained:
[1] = Antioxidant activity assessed as DPPH radical scavenging activity incubated for 30 mins by spectrophotometric analysis; assay type: functional
[2] = tested on: PC-12; assay: Neuroprotection against Amyloid beta (25 to 35)-induced toxicity in rat PC-12 cells assessed as increase in cell viability at 50 uM for 24 hrs by MTT assay relative to control; assay type: functional
[3] = tested on: PC-12; assay: Neuroprotection against Amyloid beta (25 to 35)-induced toxicity in rat PC-12 cells assessed as increase in cell viability at 25 uM for 24 hrs by MTT assay relative to control; assay type: functional
[4] = tested on: PC-12; assay: Neuroprotection against Amyloid beta (25 to 35)-induced toxicity in rat PC-12 cells assessed as increase in cell viability at 10 uM for 24 hrs by MTT assay relative to control; assay type: functional
[5] = tested on: T-24; assay: Anti-cancer activity against human T24 cells; assay type: functional, cell-based
[6] = molecular target: Aldo-keto reductase family 1 member B1 (Homo sapiens, UniProt P15121); assay: Inhibition of aldose reductase (unknown origin) using DL-glyceraldehyde as substrate
[7] = tested on: HL-60; assay: Anti-cancer activity against human HL-60 cells; assay type: functional, cell-based
[8] = Permeability of the compound by PAMPA-BBB assay; assay type: ADME; settings: read-out: permeability
[9] = tested on: SGC-7901; assay: Anti-cancer activity against human SGC-7901 cells; assay type: functional, cell-based
[10] = tested on: PC-12; assay: Neurotrophic activity in rat PC-12 cells assessed as induction of NGF-mediated neurite outgrowth at 10 uM measured after 72 hrs relative to control; assay type: functional
[11] = Antioxidant activity assessed as DPPH radical scavenging activity at 100 ug/ml incubated for 30 mins by spectrophotometric analysis; assay type: functional; settings: dose 100.0 µg/ml
[12] = tested on: RAW264.7; assay: Antiinflammatory activity in mouse RAW264.7 cells assessed as inhibition of LPS-induced NO production at 25 uM measured after 24 hrs; assay type: functional
[13] = tested on: NCI-H23; assay: Anti-cancer activity against human NCI-H23 cells; assay type: functional, cell-based
[14] = molecular target: Nitric oxide synthase, inducible (Homo sapiens, UniProt P35228); assay: Inhibition of iNOS (unknown origin)
[15] = tested on: NCI-H292; assay: Anti-cancer activity against human NCI-H292 cells; assay type: functional, cell-based
[16] = tested on: K562; assay: Anti-cancer activity against human K562 cells; assay type: functional, cell-based
[17] = tested on: Bel-7402; assay: Anti-cancer activity against human Bel-7402 cells; assay type: functional, cell-based
[18] = tested on: MDA-MB-231; assay: Cytotoxicity against human MDA-MB-231 cells assessed as cell viability incubated for 72 hrs by MTT assay; assay type: functional, cell-based; settings: MDA-MB-231, 72 h
[19] = tested on: HepG2; assay: Cytotoxicity against human HepG2 cells assessed as cell viability incubated for 72 hrs by MTT assay; assay type: functional, cell-based; settings: HepG2, 72 h
[20] = tested on: HT-29; assay: Cytotoxicity against human HT-29 cells assessed as cell viability incubated for 72 hrs by MTT assay; assay type: functional, cell-based; settings: HT-29, 72 h
[21] = tested on: THP-1; assay: Anti-cancer activity against human THP-1 cells; assay type: functional, cell-based
[22] = tested on: FaDu; assay: Cytotoxicity against human FaDu cells assessed as cell viability incubated for 24 hrs by CCK-8 assay; assay type: functional, cell-based

Chain of Nitric oxide synthase, inducible (P35228 whole entry): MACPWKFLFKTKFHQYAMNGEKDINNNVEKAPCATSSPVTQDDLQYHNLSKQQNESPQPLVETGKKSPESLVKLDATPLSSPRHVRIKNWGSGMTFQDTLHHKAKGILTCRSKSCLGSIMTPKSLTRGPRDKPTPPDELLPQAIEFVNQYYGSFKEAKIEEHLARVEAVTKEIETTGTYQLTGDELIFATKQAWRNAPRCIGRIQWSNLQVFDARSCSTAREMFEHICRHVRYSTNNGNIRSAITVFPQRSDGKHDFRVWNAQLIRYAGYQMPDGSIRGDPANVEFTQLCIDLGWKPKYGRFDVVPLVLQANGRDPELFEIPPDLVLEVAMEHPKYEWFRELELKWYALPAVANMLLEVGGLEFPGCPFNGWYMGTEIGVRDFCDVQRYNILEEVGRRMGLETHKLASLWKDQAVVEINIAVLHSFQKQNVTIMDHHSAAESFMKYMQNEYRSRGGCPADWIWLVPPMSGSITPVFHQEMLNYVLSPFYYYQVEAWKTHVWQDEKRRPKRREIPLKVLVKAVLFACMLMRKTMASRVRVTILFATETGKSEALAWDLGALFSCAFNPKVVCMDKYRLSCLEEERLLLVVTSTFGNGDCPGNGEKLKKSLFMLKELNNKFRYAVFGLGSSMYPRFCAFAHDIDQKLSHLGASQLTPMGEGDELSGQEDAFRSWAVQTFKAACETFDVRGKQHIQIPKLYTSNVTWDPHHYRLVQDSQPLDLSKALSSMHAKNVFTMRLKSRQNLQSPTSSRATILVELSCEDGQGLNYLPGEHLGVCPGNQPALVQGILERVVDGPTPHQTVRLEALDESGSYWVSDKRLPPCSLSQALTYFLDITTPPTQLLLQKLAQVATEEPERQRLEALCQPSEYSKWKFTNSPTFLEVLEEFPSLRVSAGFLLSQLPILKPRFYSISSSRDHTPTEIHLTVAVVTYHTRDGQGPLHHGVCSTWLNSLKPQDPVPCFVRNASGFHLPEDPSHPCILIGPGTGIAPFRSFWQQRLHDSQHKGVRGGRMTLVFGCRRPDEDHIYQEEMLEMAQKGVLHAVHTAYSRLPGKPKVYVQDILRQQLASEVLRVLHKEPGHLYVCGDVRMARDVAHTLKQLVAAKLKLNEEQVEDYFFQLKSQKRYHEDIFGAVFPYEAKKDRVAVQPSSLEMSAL

COc1cc(CCc2ccc(O)c(O)c2)cc(O)c1O
pIC50 [1]: 4.81

COc1ccc(CCc2cc(OC)c(OC(=O)c3ccncc3)c(OC)c2)cc1OC
Activity [2]: 46.56%
Activity [3]: 50.71%
Activity [4]: 53.53%

COc1ccc(CCc2cc(OC)c(OC)c(OC)c2)cc1O
pIC50 [5]: 6.34

COc1cc(CCc2ccc(O)c(O)c2)cc(OC)c1
pIC50 [6]: 4.41

COc1ccc(CC2c3cc(O)cc(CCc4ccc(O)cc4)c3Oc3c2cc(O)c(OC)c3O)cc1 (stereo not drawn)
pIC50 [7]: 5.68

COc1ccc(CCc2cc(OC)c(OC3CCCC3)c(OC)c2)cc1OC
Activity [2]: 72.64%
Activity [3]: 61.02%
Activity [4]: 54.77%
Papp [8]: 7.6 ×10⁻⁶ cm/s

CCC(=O)Oc1c(OC)cc(CCc2ccc(OC)c(OC)c2)cc1OC
Activity [2]: 44.4%
Activity [3]: 44.21%
Activity [4]: 45.31%

COc1cc(CCc2cc(O)c(OC)c(OC)c2)ccc1O
pIC50 [9]: 4.78

COc1cc(O)cc(CCc2cccc(O)c2)c1 [BATATASIN III]
Activity [10]: 8.2%
inhibition [11]: 36.3%
inhibition at 25 µM [12]: 21.6%

COc1cc(CCc2cccc(O)c2)cc(OC)c1O
pIC50 [7]: 5.35
pIC50 [9]: 4.89

COc1cc(CC(O)c2cc(OC)c(O)c(OC)c2)ccc1O (stereo not drawn) [NOBILIN D]
pIC50 [1]: 4.70

COc1ccc(CCc2cc(OC)c(OCc3ccccc3)c(OC)c2)cc1OC
Activity [2]: 71%
Activity [3]: 60.89%
Activity [4]: 58.22%
Papp [8]: 8.2 ×10⁻⁶ cm/s

CCCCOc1c(OC)cc(CCc2ccc(OC)c(OC)c2)cc1OC
Activity [2]: 53.44%
Activity [3]: 52.03%
Activity [4]: 51.79%

COC1=CC(O)(CCc2ccc(O)c(OC)c2)C=C(OC)C1=O
inhibition [11]: 35.3%
inhibition at 25 µM [12]: 19.7%

Oc1ccc(CCc2cc(Cl)ccc2O)cc1O
pIC50 [6]: 4.66

COc1cc(O)cc(CCc2ccc(O)cc2)c1
pIC50 [7]: 4.59
Activity [10]: 12.08%

CCCCC(C)Oc1c(OC)cc(CCc2ccc(OC)c(OC)c2)cc1OC (stereo not drawn)
Activity [2]: 52.18%
Activity [3]: 50.25%
Activity [4]: 50.67%

COc1cc(CCc2cc(OC)c(OC)c(OC)c2)ccc1O
pIC50 [13]: 3.80
pIC50 [1]: 4.66

COc1cc(CCc2cc(OC)c3c(c2)O[C@@H](c2cc(OC)c(O)c(OC)c2)[C@H](CO)O3)ccc1O
Activity [10]: 7.86%

COc1cccc(CCc2ccc(O)c(O)c2)c1O
pIC50 [6]: 3.90
pIC50 [14]: 3.36

COc1cc(CCc2ccc(O)cc2)cc(OC)c1O
pIC50 [15]: 3.70
Activity [10]: 6.94%

COc1ccc(CCc2cc(OC)c(OC(=O)CCc3ccccc3)c(OC)c2)cc1OC
Activity [2]: 49.84%
Activity [3]: 50.22%
Activity [4]: 54%

COc1ccc(CCc2cc(O)c(OC)c3c2Oc2c(cc(O)c(OC)c2O)C3Cc2ccc(OC)cc2)cc1 (stereo not drawn)
pIC50 [7]: 5.19

O=C1O[C@H]([C@@H](O)CO)C(O)=C1O [ASCORBIC ACID]
pIC50 [1]: 4.63

COc1cc2c(c(OC)c1O)-c1c(OC)cc(CCc3cccc(O)c3)cc1O[C@H]2[C@H](O)CO
pIC50 [16]: 4.99
pIC50 [17]: 5.00

COc1ccc(CCc2cc(OC)c(OC(=O)c3ccc(Cl)cc3)c(OC)c2)cc1OC
Activity [2]: 95.62%
Activity [3]: 69.24%
Activity [4]: 56.41%
Papp [8]: 6.2 ×10⁻⁶ cm/s

COc1cc(CCc2cc(O)c(O)c(OC)c2)ccc1O
pIC50 [15]: 4.02

COc1ccc(CC2c3cc(O)c(O)c(OC)c3Oc3cc(O)c4c(c32)CCc2cc(O)ccc2-4)cc1 (stereo not drawn)
pIC50 [18]: 4.60
pIC50 [19]: 4.29
pIC50 [20]: 4.52

COc1ccc(CCc2cc(OC)c(OC(=O)C(C)C)c(OC)c2)cc1OC
Activity [2]: 45.91%
Activity [3]: 47.33%
Activity [4]: 49.34%

COc1cc(CCc2ccc(O)c(O)c2)cc(OC)c1O
pIC50 [6]: 4.75

COc1cc(CCc2cc(OC)c(O)c(OC)c2)ccc1O [MOSCATILIN]
pIC50 [7]: 7.09
pIC50 [21]: 3.65
pIC50 [13]: 4.48
pIC50 [22]: 5.59
pIC50 [1]: 4.77

COc1cc([C@@H]2Oc3cc(CCc4ccc(O)cc4)cc(OC)c3O[C@H]2CO)cc(OC)c1O
Activity [10]: 9.46%

— ChEMBL document CHEMBL5244253, “Recent research progress on natural small molecule bibenzyls and its derivatives in Dendrobium species” (Eur J Med Chem, 2020)
